In US20120142766A1, “SUBSTITUTED 1,3-DIOXANES AND THEIR USES” (EVOLVA SA, priority 2007, published 2012):
Values belong to the molecule of their own block, whether it stands above or below them.

Experiments:
KKA^y mice = experiment: KKAy mice on high fat diet, 14-day oral gavage BID; assay type: in vivo, mouse
Experimental: 52 male KKA^y mice are obtained commercially (e.g., from Clea Japan) at an age of 6 weeks and put on a high fat diet upon arrival. Individual mice were housed in IVC Type II cages during both the acclimatization and the experimental phase. Both food (high fat diet) and water are supplied ad libitum.
1 animal per cage. […] Lights on at 06:00 a.m. Temperature: 21-25° C. Relative humidity target range: 55-60%.
Mice were randomized into treatment groups according to their 4-h fasting blood glucose.
4 hours after the last administration, non-fasting conditions.
Gamma irradiated high fat diet is commercially available (e.g., Research Diets, Inc. New Brunswick, N.J. (Product # D12266BI)).
Blood is collected into heparin containing glass capillaries which are subsequently centrifuged in a “Haematokrit 24” centrifuge (Hettich) at 15′200×g for 10 minutes at room temperature to obtain the hematocrit value.
The following serum parameters are determined on a COBAS INTEGRA 800 auto analyzer (Roche Diagnostics, Switzerland) using the reagents and protocols provided by the supplier.
All measurements are made on Day 14 of administration, except for the food intake and body weight measurements that are made on Day 12.

[1] = system: arterial thrombosis in a mouse model; experiment: Arterial thrombosis mouse model (FeCl3 on femoral artery); assay type: in vivo
Experimental: The solutions are diluted 3.3-fold in saline and 100 μl/25 g is injected. Thus, the above-mentioned doses of 100 and 300 mg/kg of compound correspond to final doses of 30 and 100 mg/kg.
During the experiments, a soluble salt of the drug is provided (potassium salt of compound C), diluted in saline. Of this formulation, 100 μl/25 g is injected i.v. in the tail vein (dose of 100 mg/kg).
Solutions are injected (100 μl/25 g body weight) i.v. in the tail vein over 2 min to obtain doses of each compound of 30 mg/kg and 100 mg/kg. Aspirin is given the same way at a dose of 200 mg/kg. Clopidogrel is administered by oral gavage at a dose of 20 mg/kg at 6-7 hours prior to the experiment. The animals assigned to each group are matched for body weight. Mice are typically 8-10 weeks old males and are in a 100% Swiss genetic background.
The flow in each image is expressed as a percentage of that at the contralateral side, and data are averaged for all 120 images to determine total flow. The same analysis is performed for 10 min intervals (which gives essentially the same information as the area under the curve). […] Flow before treatment is recorded as 100%, and that in occluded arteries as 0%. At the end of the experiment, blood is collected on 0.01M citrate by heart puncture for determination of blood cell counts. Plasma is prepared by centrifugation and stored at −20° C. for determination of drug levels.
Statistical analysis for differences between two groups is performed by non-parametric Student t-test. Occlusion times >30 min were considered equal to 30 min for statistical analysis. Significance is set at p<0.05.

[2] = target: T1, Human Recombinant (E. coli) PPARgamma (Homo sapiens, UniProt P37231); experiment: PPAR gamma binding assay ([3H]-rosiglitazone); conditions: [3H]-rosiglitazone 10 nM; read-out: PPARγ binding IC50
T1 construct: host or cells: E. coli
T1 sequence (P37231 1-505): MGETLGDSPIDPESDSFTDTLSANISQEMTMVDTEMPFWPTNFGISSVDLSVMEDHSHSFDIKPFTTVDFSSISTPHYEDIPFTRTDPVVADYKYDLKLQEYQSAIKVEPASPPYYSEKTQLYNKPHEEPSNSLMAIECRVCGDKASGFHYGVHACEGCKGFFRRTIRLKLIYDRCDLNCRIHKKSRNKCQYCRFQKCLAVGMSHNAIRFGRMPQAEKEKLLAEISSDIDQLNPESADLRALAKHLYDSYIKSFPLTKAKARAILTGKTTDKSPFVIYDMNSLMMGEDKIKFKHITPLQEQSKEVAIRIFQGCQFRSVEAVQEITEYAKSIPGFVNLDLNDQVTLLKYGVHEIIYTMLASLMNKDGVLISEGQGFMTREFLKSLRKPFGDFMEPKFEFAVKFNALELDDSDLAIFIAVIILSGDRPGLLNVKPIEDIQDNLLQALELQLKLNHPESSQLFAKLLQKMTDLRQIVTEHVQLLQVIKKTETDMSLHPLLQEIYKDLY
Experimental: Incubation: 120 min. at 4° C.
The results are expressed as a percent of control specific binding ((measured specific binding/control specific binding)×100) obtained in the presence of the test compounds. The IC50 values (concentration causing a half-maximal inhibition of control specific binding) and Hill coefficients (nil) were determined by non-linear regression analysis of the competition curves generated with mean replicate values using Hill equation curve fitting (Y=D+[(A−D)/(1+(C/C50)nH)], where Y=specific binding, D=minimum specific binding, A=maximum specific binding, C=compound concentration, C50=IC50, and nH=slope factor). This analysis was performed using a software developed at Cerep (Hill software) and validated by comparison with data generated by the commercial software SigmaPlot® 4.0 for Windows® (© 1997 by SPSS Inc.). The inhibition constants (Ki) were calculated using the Cheng Prusoff equation (Ki=IC50/(1+(L/KD)), where L=concentration of radioligand in the assay, and KD=affinity of the radioligand for the receptor).

Thromboxane synthase = target: T2, Thromboxane synthase (Homo sapiens, UniProt P24557); experiment: Human platelet thromboxane synthase assay; assay type: biochemical
T2 construct: Human Platelet Thromboxane Synthase Assay; from tissue; host or cells: human platelets
T2 sequence (P24557 1-533): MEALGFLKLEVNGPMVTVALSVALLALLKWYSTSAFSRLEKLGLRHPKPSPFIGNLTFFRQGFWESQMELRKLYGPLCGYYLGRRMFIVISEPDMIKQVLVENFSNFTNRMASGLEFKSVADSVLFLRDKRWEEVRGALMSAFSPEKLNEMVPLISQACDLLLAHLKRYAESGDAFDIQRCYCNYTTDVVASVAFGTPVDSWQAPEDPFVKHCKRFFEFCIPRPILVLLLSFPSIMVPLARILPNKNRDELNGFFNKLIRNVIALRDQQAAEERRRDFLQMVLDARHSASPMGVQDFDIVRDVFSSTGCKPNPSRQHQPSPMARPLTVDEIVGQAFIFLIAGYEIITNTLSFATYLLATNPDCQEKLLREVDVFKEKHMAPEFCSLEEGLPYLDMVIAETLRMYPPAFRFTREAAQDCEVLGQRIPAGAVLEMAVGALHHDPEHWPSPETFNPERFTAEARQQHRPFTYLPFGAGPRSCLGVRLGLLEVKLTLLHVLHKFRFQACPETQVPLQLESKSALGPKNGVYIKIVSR
Experimental: The compounds were tested for thromboxane synthase inhibition essentially as described by Borsch-Haubold A G, Pasquet S, Watson S P. (1998) Direct inhibition of cyclooxygenase-1 and -2 by the kinase inhibitors SB 203580 and PD 98059. […] 1. Imidazole derivatives. J Med. Chem. (10):1139-48 according to the following:
Pre-incubation time, temp: 15 minutes at 25° C. Incubation time, temp: 3 minutes at 25° C.
Incubation Buffer: 10 mM Tris-HCl, pH 7.4
Quantification Method: EIA quantification of TxB2

[3] = target: T3, Thromboxane receptor (TP) (Homo sapiens, UniProt P21731); experiment: TP receptor radioligand binding ([3H] SQ-29548); conditions: Human recombinant HEK-293 cells
T3 construct: expressed in transfected cells; host or cells: HEK-293
T3 sequence (P21731 1-343): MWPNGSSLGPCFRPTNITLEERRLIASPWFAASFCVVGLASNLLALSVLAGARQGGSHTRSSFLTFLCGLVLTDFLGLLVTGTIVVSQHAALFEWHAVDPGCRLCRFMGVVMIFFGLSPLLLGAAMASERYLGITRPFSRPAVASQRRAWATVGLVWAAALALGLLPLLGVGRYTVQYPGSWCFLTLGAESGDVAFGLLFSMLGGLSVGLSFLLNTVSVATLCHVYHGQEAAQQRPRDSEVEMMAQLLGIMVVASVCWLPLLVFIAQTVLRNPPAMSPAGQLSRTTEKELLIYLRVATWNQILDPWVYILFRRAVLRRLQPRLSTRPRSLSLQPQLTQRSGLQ
Experimental: The compounds were tested on radioligand binding assays for thromboxane receptor binding essentially as described by Hedberg et al. (1988) J. Pharmacol. Exp. Ther. 245:786-792 and Saussy et al. (1986) J. Biol. Chem. 261: 3025-3029 according to the following:
TP Receptor Radioligand Binding Studies:
Human recombinant HEK-293 cells,
Incubation Time, Temp: 30 minutes at 25° C.
Incubation Buffer: 50 mM Tris-HCl, pH 7.4, 154 mM NaCl
Non-Specific Ligand: 1 μM SQ-29548
The data were transformed to semi-log and then analysed using non-linear regression to a four-parameter dose-response curve Y=Bottom+(Top−Bottom)/(1+10̂((LogEC50−X)*HillSlope)) using the log(agonist) vs. response—Variable slope function of GraphPad Prism software (http://graphpad.com/help/prism5/prism5help.html?usitignonlinear_regression_step_by_s.htm).

[4] = system: New Zealand Rabbit platelet rich plasma; experiment: TP receptor platelet aggregation, rabbit (U-46619-induced); assay type: cell-based
Experimental: Thrombosis Research 33:277-288.
TP Receptor Platelet Aggregation—Rabbit:
New Zealand Rabbit (2.75±0.25 kg) platelet rich plasma
Assay: Inhibition of 1.5 μM U-46619-induced platelet aggregation Incubation Time, Temp: 5 minutes at 37° C. Incubation Buffer Trisodium Citrate (0.13 M)-treated platelet rich plasma
Time of Assessment: 5 minutes
Quantification Method Optical Density Change

[5] = 14-day BID, enoic acid 53 mg/kg, rosiglitazone 5 mg/kg, Compounds 3 and 13 dose not stated
[6] = Oryctolagus cuniculus, Platelet, 1.5 μM U-46619-induced
[7] = 5 mg/kg BID oral gavage, Day 12, mean ± S.E.M.
[8] = 5 mg/kg BID oral gavage, Day 14, mean ± S.E.M.

Heart weight (in words) (KKA^y mice; [5]): no effect on heart weight
Compound: O=C(O)CC/C=C\C[C@@H]1COC(c2ccc(Nc3ccccc3)cc2)O[C@@H]1c1ccccc1O (mixture of isomers) [Compound 3, (Z)-6-(4-(2-Hydroxyphenyl)-2-(4-(phenylamino)phenyl)-1,3-dioxan-5-yl)hex-4-enoic acid]
Body weight (in words) (KKA^y mice; [5]): do not alter body weight | FFA (in words) (KKA^y mice; [5]): decreases the FFA | HbA1c levels (in words) (KKA^y mice; [5]): decreased

IC50 [2]: 2100 nM | inhibition at 5 µM (Thromboxane synthase; 5 μM): 39% | inhibition at 10 µM [3]: 100%
Compound: O=C(O)CC/C=C\C[C@@H]1COC(c2ccccc2Oc2ccc(F)cc2)O[C@@H]1c1ccccc1O (stereo partly shown) [Compound 4]
inhibition at 10 µM [4, 6]: 100%

IC50 (Thromboxane synthase): 840 nM | Thromboxane synthase Human platelet Inhibition (%) at 5 μM (Thromboxane synthase; 5 μM): 76% | inhibition at 5 µM (Thromboxane synthase; 5 μM): 75% | Inhibition of thromboxane synthase (in words) (Thromboxane synthase; Table 2): inhibitors of thromboxane synthase | inhibition at 10 µM [3]: 102% | IC50 ([3]; 5 nM [3H] SQ-29548): 11 nM | Ki ([3]; 5 nM [3H] SQ-29548): 7.2 nM
Compound: O=C(O)CC/C=C\C[C@@H]1COC(c2ccccc2-c2ccccc2)O[C@@H]1c1ccccc1O (stereo partly shown) [Compound 10]
Occlusion time ([1]; dose not given): prolongs the occlusion time | Total blood flow ([1]; dose not given): improves total blood flow | inhibition at 30 µM ([4]; Oryctolagus cuniculus, Platelet, 30 μM, 1.5 μM U-46619-induced): 100% | Inhibition of platelet aggregation (in words) ([4]; Table 2): potent inhibitors of platelet aggregation

IC50 [2]: 21000 nM | inhibition at 5 µM (Thromboxane synthase; 5 μM): 12% | inhibition at 10 µM [3]: 98%
Compound: COc1ccccc1C1OC(c2ccccc2Cl)OCC1C/C=C\CCC(=O)O (stereo not shown) [Compound D, (Z)-6-(-2-(2-chlorophenyl)-4-(2-methoxyphenyl)-1,3-dioxan-5-yl)hex-4-enoic acid]
inhibition at 10 µM [4, 6]: 33%

The remaining lines, values behind:

Compound: CC(=O)Oc1ccccc1C(=O)O [Aspirin]
Occlusion time ([1]; 200 mg/kg i.v.): no effect on the occlusion time | Total blood flow ([1]; 200 mg/kg i.v.): no significant effect on the total blood flow

Compound: COC(=O)[C@H](c1ccccc1Cl)N1CCc2sccc2C1 [Clopidogrel]
Total blood flow ([1]; 20 mg/kg oral gavage 6-7 hours prior): significantly improved total blood flow

Compound: COc1ccc(C(=O)NCc2cccnc2)cc1C(=O)NCc1cccnc1 [Picotamide]
IC50 (Thromboxane synthase): 10100 nM | inhibition at 10 µM (Thromboxane synthase; 10 μM): 53% | inhibition at 100 µM ([4]; Oryctolagus cuniculus, Platelet, 100 μM, 1.5 μM U-46619-induced): 36%

Compound: CN(CCOc1ccc(CC2SC(=O)NC2=O)cc1)c1ccccn1 (stereo not shown) [Rosiglitazone]
Body Weight (KKA^y mice; [7]): 49.5 ± 1.0 g | Food Intake (KKA^y mice; [7]): 4.5 ± 0.6 g/day | ALP (KKA^y mice; [8]): 26.0 ± 1.7 dU/L | ALT (KKA^y mice; [8]): 8.9 ± 0.9 dU/L | AST (KKA^y mice; [8]): 10.1 ± 0.9 dU/L | FFA (KKA^y mice; [8]): 1.3 ± 0.1 mM | Fructosamine (KKA^y mice; [8]): 0.35 ± 0.03 mM | HDL (KKA^y mice; [8]): 3.6 ± 0.2 mM | HbA1C (KKA^y mice; [8]): 7.8 ± 0.4 % | Heart weight (KKA^y mice; [8]): 226.2 ± 6.9 mg | Hematocrit (KKA^y mice; [8]): 40.3 ± 1.5% | Insulin (KKA^y mice; [8]): 17.9 ± 4.2 µg/L | Serum Glucose (KKA^y mice; [8]): 18.8 ± 2.2 mM | TG (KKA^y mice; [8]): 1.0 ± 0.2 mM | Total Cholesterol (KKA^y mice; [8]): 4.0 ± 0.4 mM | Body weight (in words) (KKA^y mice; [5]): increased | Heart weight (in words) (KKA^y mice; [5]): increased
